# Columns and labels:
# Format in all cases: in vivo
# [1] = tested on: Surinam grass (Brachiaria decumbens); test: Test B postemergence; conditions: 13 to 15 days
# Procedure, shortened: (§1)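 Pre: seeded pots sprayed, chemical in non-phytotoxic solvent/surfactant mix. Post: plants 2–18 cm, 1–4 leaf, same formulation. Greenhouse 13–15 d; visual % control vs untreated, 0–100 scale.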
# [2] = tested on: barnyardgrass (Echinochloa crus-galli); test: Test B postemergence; conditions: 13 to 15 days
# Procedure, shortened: as §1
# [3] = tested on: blackgrass (Alopecurus myosuroides); test: Test B postemergence; conditions: 13 to 15 days
# Procedure, shortened: as §1
# corn (Zea mays) [4] = test: Test B postemergence; conditions: 13 to 15 days
# Procedure, shortened: as §1
# [5] = tested on: giant foxtail (Setaria faberii); test: Test B postemergence; conditions: 13 to 15 days
# Procedure, shortened: as §1
# [6] = tested on: morning glory (Ipomoea hederacea); test: Test B postemergence; conditions: 13 to 15 days
# Procedure, shortened: as §1
# [7] = tested on: pigweed (Amaranthus retroflexus); test: Test B postemergence; conditions: 13 to 15 days
# Procedure, shortened: as §1
# [8] = tested on: velvetleaf (Abutilon theophrasti); test: Test B postemergence; conditions: 13 to 15 days
# Procedure, shortened: as §1
# [9] = tested on: wheat (Triticum aestivum); test: Test B postemergence; conditions: 13 to 15 days
# Procedure, shortened: as §1
# [10] = tested on: Surinam grass (Brachiaria decumbens); test: Test B preemergence; conditions: scale 0 to 100, 0 no effect, 100 complete control
# Procedure, shortened: as §1
# [11] = tested on: barnyardgrass (Echinochloa crus-galli); test: Test B preemergence; conditions: scale 0 to 100, 0 no effect, 100 complete control
# Procedure, shortened: as §1
# [12] = tested on: cocklebur (Xanthium strumarium); test: Test B preemergence; conditions: Preemergence, Rate 500 g/ha; scale 0 to 100, 0 no effect, 100 complete control
# Procedure, shortened: as §1
# corn (Zea mays) [13] = test: Test B preemergence; conditions: scale 0 to 100, 0 no effect, 100 complete control
# Procedure, shortened: as §1
# [14] = tested on: crabgrass (Digitaria sanguinalis); test: Test B preemergence; conditions: scale 0 to 100, 0 no effect, 100 complete control
# Procedure, shortened: as §1
# [15] = tested on: giant foxtail (Setaria faberii); test: Test B preemergence; conditions: scale 0 to 100, 0 no effect, 100 complete control
# Procedure, shortened: as §1
# [16] = tested on: lambsquarters (Chenopodium album); test: Test B preemergence; conditions: scale 0 to 100, 0 no effect, 100 complete control
# Procedure, shortened: as §1
# [17] = tested on: morning glory (Ipomoea hederacea); test: Test B preemergence; conditions: Preemergence, Rate 500 g/ha; scale 0 to 100, 0 no effect, 100 complete control
# Procedure, shortened: as §1
# [18] = tested on: pigweed (Amaranthus retroflexus); test: Test B preemergence; conditions: Preemergence, Rate 500 g/ha; scale 0 to 100, 0 no effect, 100 complete control
# Procedure, shortened: as §1
# rice (Oryza saliva) [19] = test: Test B preemergence; conditions: Preemergence, Rate 500 g/ha; scale 0 to 100, 0 no effect, 100 complete control
# Procedure, shortened: as §1
# [20] = tested on: velvetleaf (Abutilon theophrasti); test: Test B preemergence; conditions: Preemergence, Rate 500 g/ha; scale 0 to 100, 0 no effect, 100 complete control
# Procedure, shortened: as §1
# [21] = tested on: barnyardgrass (Echinochloa crus-galli); test: Test C flooded paddy test; conditions: for Barnyardgrass plant response rating: Flooded Paddy, scale 0 to 100, 0 no effect, 100 complete control; for Plant response rating, Barnyardgrass: flooded paddy test, scale 0 to 100 (0 no effect, 100 complete control)
# Procedure, shortened: (§2)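 Flooded paddy, 2-leaf stage at treatment. Readout: visual % control vs untreated, 0–100, at 12–14 d in greenhouse.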
# [22] = tested on: duck salad (Heteranthera limosa); test: Test C flooded paddy test; conditions: for Ducksalad plant response rating: Flooded Paddy, scale 0 to 100, 0 no effect, 100 complete control; for Plant response rating, Ducksalad: flooded paddy test, scale 0 to 100 (0 no effect, 100 complete control)
# Procedure, shortened: as §2
# rice (Oryza saliva) [23] = test: Test C flooded paddy test; conditions: for Rice plant response rating: Flooded Paddy, scale 0 to 100, 0 no effect, 100 complete control; for Plant response rating, Rice: flooded paddy test, scale 0 to 100 (0 no effect, 100 complete control)
# Procedure, shortened: as §2
# [24] = tested on: smallflower flatsedge (Cyperus difformis); test: Test C flooded paddy test; conditions: for Flatsedge plant response rating: Flooded Paddy, scale 0 to 100, 0 no effect, 100 complete control; for Plant response rating, Flatsedge: flooded paddy test, scale 0 to 100 (0 no effect, 100 complete control)
# Procedure, shortened: as §2
# Sunflower = test: Test C preemergence; conditions: Rate 125 g/ha, scale 0 to 100, 0 no effect, 100 complete control
# [25] = Rate 125 g/ha, scale 0 (no effect) to 100 (complete control)
# [26] = Rate 500 g/ha, scale 0 to 100, 0 is no effect, 100 is complete control
smiles,measurement,setting,value
CC(C)(C)c1ccn(C2CCN(c3cccc(Cl)c3)C2=O)n1 (stereo not shown) [Compound 43],"Plant response rating, Surinam grass",[1]; [25],0
same,"Plant response rating, Surinam grass",[1]; [26],0
same,"Plant response rating, Barnyardgrass",[2]; [25],0
same,"Plant response rating, Barnyardgrass",[2]; [26],70
same,"Plant response rating, Blackgrass",[3]; [25],0
same,"Plant response rating, Blackgrass",[3]; [26],0
same,"Plant response rating, Corn",corn (Zea mays) [4]; [25],0
same,"Plant response rating, Corn",corn (Zea mays) [4]; [26],0
same,"Plant response rating, Foxtail, Giant",[5]; [25],0
same,"Plant response rating, Foxtail, Giant",[5]; [26],0
same,"Plant response rating, Morningglory",[6]; [25],0
same,"Plant response rating, Morningglory",[6]; [26],0
same,"Plant response rating, Pigweed",[7]; [25],50
same,"Plant response rating, Pigweed",[7]; [26],80
same,"Plant response rating, Velvetleaf",[8]; [25],0
same,"Plant response rating, Velvetleaf",[8]; [26],0
same,"Plant response rating, Wheat",[9]; [25],0
same,"Plant response rating, Wheat",[9]; [26],0
same,"Plant response rating, Surinam grass","[10]; Preemergence, Rate 500 g/ha",20
same,"Plant response rating, Surinam grass","[10]; preemergence, Rate 125 g/ha",0
same,"Plant response rating, Barnyardgrass","[11]; Preemergence, Rate 500 g/ha",100
same,"Plant response rating, Barnyardgrass","[11]; preemergence, Rate 125 g/ha",60
same,"Plant response rating, Cocklebur",[12],0
same,"Plant response rating, Corn","corn (Zea mays) [13]; Preemergence, Rate 500 g/ha",0
same,"Plant response rating, Corn","corn (Zea mays) [13]; preemergence, Rate 125 g/ha",0
same,"Plant response rating, Crabgrass","[14]; Preemergence, Rate 500 g/ha",90
same,"Plant response rating, Crabgrass","[14]; preemergence, Rate 125 g/ha",0
same,"Plant response rating, Foxtail, Giant","[15]; Preemergence, Rate 500 g/ha",100
same,"Plant response rating, Foxtail, Giant","[15]; preemergence, Rate 125 g/ha",0
same,"Plant response rating, Lambsquarters","[16]; Preemergence, Rate 500 g/ha",100
same,"Plant response rating, Lambsquarters","[16]; preemergence, Rate 125 g/ha",100
same,"Plant response rating, Morningglory",[17],0
same,"Plant response rating, Pigweed",[18],100
same,"Plant response rating, Rice",rice (Oryza saliva) [19],70
same,"Plant response rating, Velvetleaf",[20],0
same,Barnyardgrass plant response rating,[21]; Rate 250 g/ha,100
same,Barnyardgrass plant response rating,[21]; Rate 500 g/ha,100
same,"Plant response rating, Barnyardgrass",[21]; Rate 62 g/ha,30
same,"Plant response rating, Barnyardgrass",[21]; Rate 125 g/ha,80
same,Ducksalad plant response rating,[22]; Rate 250 g/ha,30
same,Ducksalad plant response rating,[22]; Rate 500 g/ha,80
same,"Plant response rating, Ducksalad",[22]; Rate 62 g/ha,0
same,"Plant response rating, Ducksalad",[22]; Rate 125 g/ha,20
same,Rice plant response rating,rice (Oryza saliva) [23]; Rate 250 g/ha,0
same,Rice plant response rating,rice (Oryza saliva) [23]; Rate 500 g/ha,30
same,"Plant response rating, Rice",rice (Oryza saliva) [23]; Rate 62 g/ha,0
same,"Plant response rating, Rice",rice (Oryza saliva) [23]; Rate 125 g/ha,0
same,Flatsedge plant response rating,[24]; Rate 250 g/ha,100
same,Flatsedge plant response rating,[24]; Rate 500 g/ha,100
same,"Plant response rating, Flatsedge",[24]; Rate 62 g/ha,90
same,"Plant response rating, Flatsedge",[24]; Rate 125 g/ha,100
same,"Plant response rating, Sunflower",Sunflower,0

# — patent US7138361B2, “Herbicidal heterocycles” (E. I. du Pont de Nemours and Company, priority 2000, dated 2006)
